Test results taken from US20250115598A1 (Anaxis Pharma Pty Ltd, priority 2021, published 2025).

Legend:
endogenous MLKL in MDF = endogenous MLKL in MDF (Mus musculus (Mouse), UniProt Q9D2Y4); assay: Degradation assay: endogenous MLKL in MDF (western blot); settings: MDF cells, 24 h incubation with compound, MLKL adjusted for loading with GAPDH, normalized to DMSO only control, read-out: Degradation of endogenous MLKL in MDF (DC50 cell-based assay)
Description: Degradation Assay: Screening Compounds Procedure to Evaluate the Activity of Compounds in Degrading Endogenous MLKL in Human and Mouse Cell
The mouse dermal fibroblast (MDF) cell line was seeded the day before the experiment in a 24-well plate at a cell density of […] per well in a volume of 0.5 mL per well and left to attach overnight. The human monocyte cell line (U937) was seeded on the day of the experiment in a 24-well plate at a cell density of […] per well in a volume of 0.5 mL per well.
The compound was diluted in DMSO with a starting concentration of 10 mM and titrated stepwise with a dilution of 1:5. 0.5 μL of the compound dilution was added to the appropriate well to achieve a final concentration of 10; 2; 0.4; 0.08 and 0.016 μM. A DMSO only well was included as control.
The cells were incubated for 24 h in the presence of the compound at 37° C. and 10% CO2.
After the 24 h incubation period, the medium was removed and cells washed with 0.5 mL PBS. The cells were then lysed directly in 60 μL of 1×SDS gel loading buffer.
The cell lysate was heat-denatured at […] for 10 min. 10 μL of lysate per well were run on 18-well 4-15% Criterion TGX stain free gels (BIO-RAD). The proteins were then transferred onto nitrocellulose membrane with a wet transfer protocol in the Criterion Blotter (BIO-RAD).
Membranes were blocked with 5% skim milk in TBST. Primary antibody against MLKL (clone 3H1, MABC604 Merck) was used at 1:2000 dilution in TBST with 1% BSA and left shaking over night at 4° C. After washes with TBST, the membranes were incubated with goat anti-rat IgG HRP-conjugated antibody (Southern Biotech) in 1% skim milk TBST at 1:10000 dilution for 1 h at room temperature. After TBST washes the bands were imaged on the ChemiDoc MP Imaging System (BIO-RAD) with Immobilion Western Chemiluminescent HRP Substrate Forte (Millipore). The loading control GAPDH was probed for with rabbit anti-GAPDH (CST 14C10) at 1:2000 dilution in 1% BSA TBST over night at 4° C. TBST washes were followed by incubation with goat anti-rabbit IgG HRP-conjugated antibody (Southern Biotech) in 1% skim milk TBST at 1:10000 dilution for 1 h at room temperature followed by TBST washes. The signal was detected as described above.
The band intensity was measured in the ImageLab Software (BIO-RAD) and the MLKL values adjusted for loading with GAPDH. The percentage of degradation was calculated by normalizing the compound treated values to the DMSO only control.

human MLKL (full length) = human MLKL (full length) (Homo sapiens (Human), UniProt Q8NB16); assay: KINOMEscan binding assay, human MLKL (full length); settings: hMLKL, Table 25; read-out: MLKL (KD)
Chain of human MLKL (full length) (Q8NB16 whole entry): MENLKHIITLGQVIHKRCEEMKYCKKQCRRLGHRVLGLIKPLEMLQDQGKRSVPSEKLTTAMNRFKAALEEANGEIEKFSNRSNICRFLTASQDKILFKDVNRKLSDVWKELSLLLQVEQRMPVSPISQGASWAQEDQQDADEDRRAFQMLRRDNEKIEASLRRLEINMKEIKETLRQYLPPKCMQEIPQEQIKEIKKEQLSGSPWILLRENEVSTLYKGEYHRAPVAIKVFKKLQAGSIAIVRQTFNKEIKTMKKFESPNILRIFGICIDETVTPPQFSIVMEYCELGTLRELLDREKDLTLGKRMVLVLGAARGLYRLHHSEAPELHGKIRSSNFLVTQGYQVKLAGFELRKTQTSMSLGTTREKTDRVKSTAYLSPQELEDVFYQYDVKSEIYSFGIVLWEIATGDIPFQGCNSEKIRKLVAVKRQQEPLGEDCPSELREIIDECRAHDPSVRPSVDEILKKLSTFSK
In short: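 Assay principle: test compound competes with immobilized bead ligand for kinase; kinase retained, then eluted, is counted by qPCR. Conditions were 1% DMSO final with 11 compound concentrations in 3-fold steps, 30,000 nM top for most. The Hill equation with slope −1 gave Kd.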

[1] = system: Immortalised Mouse Dermal Fibroblasts (MDFs); assay: Cellular assay: inhibition of TSI induced necroptosis, CellTitre-Glo viability; settings: Mus musculus, Fibroblast; MDF, 3 hours TSI cocktail, Table 27; read-out: Inhibition of TSI-induced necroptosis (IC50 cell-based assay) in MDF
In short: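 Necroptosis induced for 3 h with TSI: rhTNF 100 ng/ml, Smac mimetic 500 nM, caspase inhibitor IDN-6556 10 μM. Mouse dermal fibroblasts had received compound (36 μM top, ten three-fold steps) 30 min beforehand. ATP-based viability scaled between untreated and TSI-only wells; IC50 taken as 4-parameter curve inflection.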

Chain of endogenous MLKL in MDF (Q9D2Y4 whole entry): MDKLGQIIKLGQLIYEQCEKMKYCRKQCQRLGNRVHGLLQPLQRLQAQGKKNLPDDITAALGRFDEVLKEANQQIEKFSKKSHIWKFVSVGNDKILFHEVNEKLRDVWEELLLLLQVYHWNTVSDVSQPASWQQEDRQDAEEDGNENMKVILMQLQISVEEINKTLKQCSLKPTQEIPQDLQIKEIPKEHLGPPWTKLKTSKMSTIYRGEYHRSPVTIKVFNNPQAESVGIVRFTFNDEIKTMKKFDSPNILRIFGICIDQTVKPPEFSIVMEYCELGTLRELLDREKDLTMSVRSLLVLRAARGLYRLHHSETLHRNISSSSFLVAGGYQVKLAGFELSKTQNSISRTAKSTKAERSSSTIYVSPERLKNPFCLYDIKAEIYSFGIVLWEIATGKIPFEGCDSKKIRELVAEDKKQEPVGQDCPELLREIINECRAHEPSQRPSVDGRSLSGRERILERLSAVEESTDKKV

| DC50 (endogenous MLKL in MDF) | Kd (human MLKL (full length)) | SMILES | IC50 [1] |
| --- | --- | --- | --- |
| 1000 to 10000 nM | 10 to 1000 nM | Cc1ncsc1-c1ccc(CNC(=O)[C@@H]2C[C@@H](O)CN2C(=O)[C@@H](NC(=O)c2cccc(OCCn3cc(-c4cnc(N)c5c(-c6ccc(NS(=O)(=O)C(F)F)c(O[C@@H](C)c7ccc(F)cc7)c6)nn(C)c45)cn3)c2)C(C)(C)C)cc1 [Compound 1039, (2S,4R)-1-[(2S)-2-({3-[2-(4-{4-amino-3-[4-(difluoromethanesulfonamido)-3-[(1S)-1-(4-fluorophenyl)ethoxy]phenyl]-1-methyl-1H-pyrazolo[4,3-c]pyridin-7-yl}-1H-pyrazol-1-yl)ethoxy]phenyl}formamido)-3,3-dimethylbutanoyl]-4-hydroxy-N-{[4-(4-methyl-1,3-thiazol-5-yl)phenyl]methyl}pyrrolidine-2-carboxamide] |  |
| < 1000 nM | 10 to 1000 nM | C[C@H](Oc1cc(-c2nn(C)c3c(-c4cnn(C5CCN(C(=O)CCC6CCN(c7cccc8c7C(=O)N(C7CCC(=O)NC7=O)C8=O)CC6)CC5)c4)cnc(N)c23)ccc1NS(=O)(=O)C(F)F)c1ccc(F)cc1 (stereo partly drawn) [Compound 1043, N-[4-(4-amino-7-{1-[1-(3-{1-[2-(2,6-dioxopiperidin-3-yl)-1,3-dioxo-2,3-dihydro-1H-isoindol-4-yl]piperidin-4-yl}propanoyl)piperidin-4-yl]-1H-pyrazol-4-yl}-1-methyl-1H-pyrazolo[4,3-c]pyridin-3-yl)-2-[(1S)-1-(4-fluorophenyl)ethoxy]phenyl]-1,1-difluoromethanesulfonamide] | < 1000 nM |
| < 1000 nM | 10 to 1000 nM | Cc1ncsc1-c1ccc(CNC(=O)[C@@H]2C[C@@H](O)CN2C(=O)[C@@H](NC(=O)C2(F)CC2)C(C)(C)C)c(OCCCCCCCCn2cc(-c3cnc(N)c4c(-c5ccc(NS(=O)(=O)C(F)F)c(O[C@@H](C)c6ccc(F)cc6)c5)nn(C)c34)cn2)c1 [Compound 1045, (2S,4R)-N-[(2-{[8-(4-{4-amino-3-[4-(difluoromethanesulfonamido)-3-[(1S)-1-(4-fluorophenyl)ethoxy]phenyl]-1-methyl-1H-pyrazolo[4,3-c]pyridin-7-yl}-1H-pyrazol-1-yl)octyl]oxy}-4-(4-methyl-1,3-thiazol-5-yl)phenyl)methyl]-1-[(2S)-2-[(1-fluorocyclopropyl)formamido]-3,3-dimethylbutanoyl]-4-hydroxypyrrolidine-2-carboxamide] |  |
| < 1000 nM | 10 to 1000 nM | Cc1ncsc1-c1ccc(CNC(=O)[C@@H]2C[C@@H](O)CN2C(=O)[C@@H](NC(=O)COCCOc2ccc(-c3cnc(N)c4c(-c5ccc(NS(=O)(=O)C(F)F)c(O[C@@H](C)c6ccc(F)cc6)c5)nn(C)c34)cc2)C(C)(C)C)cc1 [Compound 1049, (2S,4R)-1-[(2S)-2-{2-[2-(4-{4-amino-3-[4-(difluoromethanesulfonamido)-3-[(1S)-1-(4-fluorophenyl)ethoxy]phenyl]-1-methyl-1H-pyrazolo[4,3-c]pyridin-7-yl}phenoxy)ethoxy]acetamido}-3,3-dimethylbutanoyl]-4-hydroxy-N-{[4-(4-methyl-1,3-thiazol-5-yl)phenyl]methyl}pyrrolidine-2-carboxamide] | 1000 to 10000 nM |
| < 1000 nM | 10 to 1000 nM | C[C@H](Oc1cc(-c2nn(C)c3c(-c4cnn(C5CCN(C(=O)CC6CCN(c7cccc8c7C(=O)N(C7CCC(=O)NC7=O)C8=O)C6)CC5)c4)cnc(N)c23)ccc1NS(=O)(=O)C(F)F)c1ccc(F)cc1 (stereo partly drawn) [Compound 1053, N-[4-(4-amino-7-{1-[1-(2-{1-[2-(2,6-dioxopiperidin-3-yl)-1,3-dioxo-2,3-dihydro-1H-isoindol-4-yl]pyrrolidin-3-yl}acetyl)piperidin-4-yl]-1H-pyrazol-4-yl}-1-methyl-1H-pyrazolo [4,3-c]pyridin-3-yl)-2-[(1S)-1-(4-fluorophenyl)ethoxy]phenyl]-1,1-difluoromethanesulfonamide] | < 1000 nM |
| < 1000 nM | 10 to 1000 nM | C[C@H](Oc1cc(-c2nn(C)c3c(-c4cnn(C5CCN(C(=O)[C@H]6C[C@@H](Nc7cccc8c7C(=O)N(C7CCC(=O)NC7=O)C8=O)C6)CC5)c4)cnc(N)c23)ccc1NS(=O)(=O)C(F)F)c1ccc(F)cc1 (stereo partly drawn) [Compound 1055, N-{4-[4-amino-1-methyl-7-(1-{1-[(cis)-3-{[2-(2,6-dioxopiperidin-3-yl)-1,3-dioxo-2,3-dihydro-1H-isoindol-4-yl]amino}cyclobutane-carbonyl]piperidin-4-yl}-1H-pyrazol-4-yl)-1H-pyrazolo[4,3-c]pyridin-3-yl]-2-[(1S)-1-(4-fluorophenyl)ethoxy]phenyl}-1,1-difluoromethanesulfonamide] | < 1000 nM |
| 1000 to 10000 nM | < 10 nM | Cn1nc(-c2ccc(NS(=O)(=O)C(F)F)c(F)c2)c2c(N)ncc(-c3cnn(CCCCCCCOc4cccc5c4C(=O)N(C4CCC(=O)NC4=O)C5=O)c3)c21 (centres unmarked) [Compound 1060, N-(4-{4-amino-7-[1-(7-{[2-(2,6-dioxopiperidin-3-yl)-1,3-dioxo-2,3-dihydro-1H-isoindol-4-yl]oxy}heptyl)-1H-pyrazol-4-yl]-1-methyl-1H-pyrazolo[4,3-c]pyridin-3-yl}-2-fluorophenyl)-1,1-difluoromethanesulfonamide] |  |
| < 1000 nM |  | C[C@H](Oc1cc(-c2nn(C)c3c(-c4cnn(C5CCN(CCn6cc(CCNc7cccc8c7C(=O)N(C7CCC(=O)NC7=O)C8=O)nn6)CC5)c4)cnc(N)c23)ccc1NS(=O)(=O)C(F)F)c1ccc(F)cc1 (some centres unmarked) [Compound 1128, N-(4-{4-amino-7-[1-(1-{2-[4-(2-{[2-(2,6-dioxopiperidin-3-yl)-1,3-dioxo-2,3-dihydro-1H-isoindol-4-yl]amino}ethyl)-1H-1,2,3-triazol-1-yl]ethyl}piperidin-4-yl)-1H-pyrazol-4-yl]-1-methyl-1H-pyrazolo[4,3-c]pyridin-3-yl}-2-[(1 S)-1-(4-fluorophenyl)ethoxy]phenyl)-1,1-difluoromethanesulfonamide] | < 1000 nM |
| 1000 to 10000 nM |  | C[C@H](Oc1cc(-c2nn(C)c3c(-c4cnn(C5CCN(CCc6cn(CCNc7cccc8c7C(=O)N(C7CCC(=O)NC7=O)C8=O)nn6)CC5)c4)cnc(N)c23)ccc1NS(=O)(=O)C(F)F)c1ccc(F)cc1 (some centres unmarked) [Compound 1135, N-(4-{4-amino-7-[1-(1-{2-[1-(2-{[2-(2,6-dioxopiperidin-3-yl)-1,3-dioxo-2,3-dihydro-1H-isoindol-4-yl]amino}ethyl)-1H-1,2,3-triazol-4-yl]ethyl}piperidin-4-yl)-1H-pyrazol-4-yl]-1-methyl-1H-pyrazolo[4,3-c]pyridin-3-yl}-2-[(1 S)-1-(4-fluorophenyl)ethoxy]phenyl)-1,1-difluoromethanesulfonamide] |  |
| < 1000 nM |  | C[C@H](Oc1cc(-c2nn(C)c3c(-c4cnn(C5CCN(C(=O)Cc6cccc7c6C(=O)N(C6CCC(=O)NC6=O)C7=O)CC5)c4)cnc(N)c23)ccc1NS(=O)(=O)C(F)F)c1ccc(F)cc1 (stereo partly drawn) [Compound 1137, N-(4-{4-amino-7-[1-(1-{2-[2-(2,6-dioxopiperidin-3-yl)-1,3-dioxo-2,3-dihydro-1H-isoindol-4-yl]acetyl}piperidin-4-yl)-1H-pyrazol-4-yl]-1-methyl-1H-pyrazolo[4,3-c]pyridin-3-yl}-2-[(1S)-1-(fluorophenyl)ethoxy]phenyl)-1,1-difluoromethanesulfonamide] | 1000 to 10000 nM |
